The values that follow come from US4307100A (priority 1978, dated 1981).

Data set [1] concerns tubulin. Put plainly: Inhibition of the polymerisation of tubulin (UV, 350 nm). Particulars: for I50/I50 vinblastine: tartrates, tubulin concentration ~ 2 mg/ml, ratio to vinblastine. The data set is classed as biochemical, pigs. From the text: (§1) The receiver of anti-tumoral indolic alkaloids of the vinblastine type is tubulin.
(§2) It is readily extracted from pigs' brains where it preresents 10% of the soluble proteins.
(§3) The polymerisation of tubulin into microtubules may readily be followed by means of a UV spectrophotometer observing at 350 nm. The maximum polymerisation velocity is thus determined; it is reduced by the addition of inhibitors of the vinblastine type and a concentration, I50, reducing the polymerisation velocity by half is obtained for each substance tested. A second effect of these products is taken into consideration: with higher doses, after complete inhibition of polymerisation, spiralisation of the tubulin is observed (verified by electron microscopy) and a new concentration, S50, corresponding to the appearance of 50% of the phenomenon is determined.
(§4) The results of each product are always compared with those of the vinblastine used as reference.
(§5) The results of the interaction tests with
(§6) tubulin carried out on the tartrates are summarised
(§7) in the following Table (tubulin concentration
(a) I50 : concentration of the product inhibiting 50% of the velocit
of polymerisation of the tubulin. I50 vinblastine = 2,10^-6.

Data set [2] relates to tubulin. The experiment in a line: Spiralisation of tubulin (S50). The data set is classed as biochemical, pigs. Particulars: for S50/S50 vinblastine: tartrates, tubulin concentration ~ 2 mg/ml, ratio to vinblastine.
Excerpt: as §1, §2, §3, §4, §5, §6, §7
(b) S50 : concentration of the product required for inducing 50% of
the maximum spiralisation of the tubulin.

The next data set concerns L1210 leukaemia. The experiment in a line: Activity in the L1210 leukaemia test on mice. The data set is classed as in vivo, mice (DBA/2 female). Particulars: tartrate. As to the method:
Table III below summarises the results obtained with the compound of Example 1 in the form of its tartrate in the treatment of L1210 leukaemia:
(§8) Graft→treatment interval: 24 h.
Conc. 0.5 and 1 mg/ml in physiological serum.

For another data set, the system named is leukaemia studied. Put plainly: Leukaemia tests on mice, overall conclusion. The data set is classed as in vivo. Particulars: in words, compared with vincristine and vinblastine. From the text: (2) Activity in the P388 leukaemia test on mice
(3) Activity in the L1210 leukaemia test on mice

Another data set concerns P388 leukaemia. Put plainly: Activity in the P388 leukaemia test on mice. Type of data set: in vivo, mice (DBA/2 female). Particulars: tartrate; for ratio of T and C (formula drawing 15): C = average life of treated, control group; for Mean survival period: control 10.5 ± 0.8. The protocol:
Table II below exemplifies the results obtained with the compound of Example 1 in the form of its tartrate in the treatment of P388 leukaemia.
T=average life (in days) of the mice of the treated group
C=average life (in days) of the mice of the control group
Graft: P 388 (10^6 cell./mice ip)
as §8

Data set [3] is described as follows: Toxicity of the product of Example 1 in tartrate form, single dose, mortality over 35 days. Type of data set: in vivo, DBA/2 female mice. Particulars: for Distribution of mortality, 1: column 1 (day); for Distribution of mortality, 6: column 6 (day); for Distribution of mortality, 3: column 3 (day). From the text: A single dose of the test product is intraperitoneally administered to DBA/2 .female. mice and the mortality rate studied over a period of 35 days.

For data set [4] the following is noted: comparison value, cited from earlier work; for DL50: i.v.

Some results are limits rather than exact numbers.

Take `CCC12CN3Cc4c([nH]c5ccccc45)[C@@](C(=O)OC)(c4cc5c(cc4OC)N(C=O)[C@H]4[C@@](O)(C(=O)OC)[C@H](OC(C)=O)[C@]6(CC)C=CCN7CC[C@]54[C@@H]76)C[C@@H](C3)C1O2` (stereo partly shown) [5'-nor-Na-desmethyl Na-formyl leurosine]: the I50/I50 vinblastine in the data set on tubulin [1] came out at 2.77. Besides, the S50/S50 vinblastine in the data set with tubulin [2] was 2.5.

On to `CCC1=C[C@@H]2CN(C1)Cc1c([nH]c3ccccc13)[C@@](C(=O)OC)(c1cc3c(cc1OC)N(C)[C@H]1[C@@](O)(C(=O)OC)[C@H](OC(C)=O)[C@]4(CC)C=CCN5CC[C@]31[C@@H]54)C2` [5'-noranhydrovinblastine], for which the “activity in regard to the inhibition of polymerisation” value with tubulin [1] (in words, compared with vinblastine) was “activity similar to vinblastine”. In addition, the I50/I50 vinblastine in the data set on tubulin [1] worked out at 0.7. For the same compound, the “I.L.S. (formula drawing 16)” value with L1210 leukaemia (5 mg/kg i.p.) was 40; with L1210 leukaemia (10 mg/kg i.p., first line), 57; with L1210 leukaemia (10 mg/kg i.p., second line), 50; in the data set with L1210 leukaemia (25 mg/kg i.p., first line), 65; in the data set with L1210 leukaemia (25 mg/kg i.p., second line) it was 57. Besides, the “ratio (formula drawing 17)” value was 140 in the data set on L1210 leukaemia (5 mg/kg i.p.); 157 with L1210 leukaemia (10 mg/kg i.p., first value); 150 with L1210 leukaemia (10 mg/kg i.p., second value); 165 with L1210 leukaemia (25 mg/kg i.p., first value); 157 with L1210 leukaemia (25 mg/kg i.p., second value). For the same compound, the “Mean survival period” value with L1210 leukaemia (5 mg/kg i.p., control 8.6 ± 0.4) came out at 12.0 ± 0.9 days; with L1210 leukaemia (10 mg/kg i.p., first line, control 8.6 ± 0.4), 13.5 ± 0.9 days; in the data set with L1210 leukaemia (10 mg/kg i.p., second line, control 8.6 ± 0.7), 12.9 ± 1.3 days; with L1210 leukaemia (25 mg/kg i.p., first line, control 8.6 ± 0.4) it was 14.2 days; in the data set on L1210 leukaemia (25 mg/kg i.p., second line, control 8.6 ± 0.7) it was 13.5 days; with P388 leukaemia (5 mg/kg i.p.), 13.6 ± 0.8 days. Further, the “Mean survival period” value with P388 leukaemia (10 mg/kg i.p.) is 17.9 ± 0.9 days; in the data set with P388 leukaemia (25 mg/kg i.p.) it was ≥ 24.3 days. Besides, the “activity on the leukaemia studied” value with leukaemia studied was “more active than vincristine and vinblastine”. For the same compound, the figures for the “I.L.S. (formula drawing 14)” value with P388 leukaemia (5 mg/kg i.p.), with P388 leukaemia (10 mg/kg i.p.) and in the data set with P388 leukaemia (25 mg/kg i.p.) were 29.5, 70.5 and ≥ 131.4, respectively. Moreover, the results for the “ratio of T and C (formula drawing 15)” value in the data set on P388 leukaemia (5 mg/kg i.p.), in the data set on P388 leukaemia (10 mg/kg i.p.) and with P388 leukaemia (25 mg/kg i.p.) were 129.5, 170.5 and ≥ 231.4, respectively. The entries for the “Distribution of mortality, 1” value in data set [3] (50 mg/kg i.p.) and in data set [3] (75 mg/kg i.p.) were 1 and 3, respectively. Moreover, the “Distribution of mortality, 4” value in data set [3] (50 mg/kg i.p., column 4 (day)) was 1. The “Distribution of mortality, 6” value in data set [3] (50 mg/kg i.p.) and in data set [3] (75 mg/kg i.p.) was 1 in each case. The “Distribution of mortality, 9” value in data set [3] (50 mg/kg i.p., column 9 (day)) came to 1. Also, the “Mortality over 35 days” value in data set [3] (50 mg/kg single i.p. dose, tartrate, 5 mice) is recorded as 4/5; in data set [3] (100 mg/kg single i.p. dose, tartrate, 3 mice), 3/3. For the same compound, the “Distribution of mortality, 3” value is 1 in data set [3] (75 mg/kg i.p.) and 3 in data set [3] (100 mg/kg i.p.). In data set [3] (in words), the “toxicity compared with vincristine and vinblastine” value is reported as “far less toxic”. Also, the mortality at 840 h in data set [3] (mouse, in vivo, ip, 25 mg/kg single i.p. dose, tartrate, 5 mice) stood at 0%. The DL0 in data set [3] (single i.p. dose, tartrate, DBA/2 female mice, 35 days) amounted to 25 mg/kg. Besides, the “"spiralising" activity” value in the data set on tubulin [2] (in words) was “does not have any "spiralising" activity”. Also, the S50/S50 vinblastine in the data set with tubulin [2] is given as 0.8-1.0.

Take `CCC1=C[C@@H]2CN(C1)Cc1c([nH]c3ccccc13)[C@@](C(=O)OC)(c1cc3c(cc1OC)N(C=O)[C@H]1[C@@](O)(C(=O)OC)[C@H](OC(C)=O)[C@]4(CC)C=CCN5CC[C@]31[C@@H]54)C2` [5'-noranhydrovincristine]: the I50/I50 vinblastine in the data set with tubulin [1] worked out at 0.8. The S50/S50 vinblastine in the data set with tubulin [2] is listed as 0.66.

In the case of `CCC12CN3Cc4c([nH]c5ccccc45)[C@@](C(=O)OC)(c4cc5c(cc4OC)N(C)[C@H]4[C@@](O)(C(=O)OC)[C@H](OC(C)=O)[C@]6(CC)C=CCN7CC[C@]54[C@@H]76)C[C@@H](C3)C1O2` (stereo partly shown) [5'-norleurosine], in the data set on tubulin [1], the I50/I50 vinblastine is listed as 1.0. Also, the S50/S50 vinblastine with tubulin [2] stood at 3.

As for `CCC1=C[C@@H]2CN(C1)Cc1c([nH]c3ccccc13)[C@@](C(=O)OC)(c1cc3c(c(Cl)c1OC)N(C)[C@H]1[C@@](O)(C(=O)OC)[C@H](OC(C)=O)[C@]4(CC)C=CCN5CC[C@]31[C@@H]54)C2` [12-chloro-5'-noranhydrovinblastine], the I50/I50 vinblastine in the data set with tubulin [1] turned out to be 13.

As to `CCC1=C[C@@H]2CN(CCc3c([nH]c4ccccc34)[C@@](C(=O)OC)(c3cc4c(cc3OC)N(C=O)[C@H]3[C@@](O)(C(=O)OC)[C@H](OC(C)=O)[C@]5(CC)C=CCN6CC[C@]43[C@@H]65)C2)C1` [anhydrovincristine, reference compound], in the data set on tubulin [1], the I50/I50 vinblastine is reported as 1.8. Moreover, the S50/S50 vinblastine with tubulin [2] stood at 1.5.

In the case of `CC[C@]1(O)C[C@@H]2CN(CCc3c([nH]c4ccccc34)[C@@](C(=O)OC)(c3cc4c(cc3OC)N(C)[C@H]3[C@@](O)(C(=O)OC)[C@H](OC(C)=O)[C@]5(CC)C=CCN6CC[C@]43[C@@H]65)C2)C1` [vinblastine, reference compound], the IC50 in the data set with tubulin [1] (reference vinblastine, unit inferred, read-out: I50: concentration of the product inhibiting 50% of the velocity of polymerisation of the tubulin (converted)) was […]. In addition, the DL50 in data set [4] was 17 mg/kg.

On to `CC[C@]1(O)C[C@H]2CN(CCc3c([nH]c4ccccc34)[C@@](C(=O)OC)(c3cc4c(cc3OC)N(C=O)[C@H]3[C@@](O)(C(=O)OC)[C@H](OC(C)=O)[C@]5(CC)C=CCN6CC[C@]43[C@@H]65)C2)C1` [vincristine], for which the DL10 in data set [4] (route not given) is 3 mg/kg. The DL50 in data set [4] is 2 mg/kg.

By mortality is commonly meant the percentage killed. Read a low mortality as a weak lethal effect.
